Test results from US9492493B2, “Softgel of NLKJ for treating prostate diseases” (priority 2003, dated 2016).

How the values were obtained:
[1] = test system: Human prostate cancer (PC-3M); experiment: Inhibition of NLKJ softgels in combination with Lupron on the growth of human prostate cancer in animal models (Experiment Example 2); format: in vivo; details: sc × 1, 21th day after inoculation
Text: Inhibition of NLKJ Softgels in Combination with Lupron on the Growth of Human Prostate Cancer in Animal Models […] for injection), Batch No. 011209; Lupron (Takeda Chemical Industries, Ltd., Osaka, Japan 541), Batch No. 47978 AP. […] Grafting Tumor: Human prostate cancer (PC-3M), subcultured by Pharmacological Department, Shanghai Institute of Pharmaceutical Industry. […] The weights of tumors were compared among the groups.

[2] = test system: Human prostate cancer (PC-3M); experiment: Inhibition of NLKJ softgels on the growth of human prostate cancer in an animal model (Experiment Example 1); format: in vivo; details: 100 mg/kg, ip × 3 (d 1, 5, 9); 21th day after inoculation
Protocol: Inhibition of NLKJ Softgels on the Growth of Human Prostate Cancer in an Animal Model
NLKJ softgels (NLKJ for injection), Batch No. 20010412;
Kanglaite Injection (Product of Zhejiang Kanglaite Pharmaceutical Co. LTD, containing NLKJ 10 g/100 ml), Batch No. 0011281-1.
Grafting Tumor: Human prostate cancer (PC-3M), subcultured by Pharmacological Department, Shanghai Institute of Pharmaceutical Industry.
1) Control Group (Normal saline);
2) NLKJ softgel (5 ml/kg, p.o.×10 d);
3) NLKJ softgel (10 ml/kg, p.o.×10 d);
4) Kanglaite Injection (25 ml/kg, i.v.×10 d);
5) Cyclophamide (CTX) (100 mg/kg, ip.×3 (d1, d5, d9)).
(§1) The treatment started from the second day after inoculation. […] The weights of tumors were compared among the groups. The result was judged based on the formula: […]
IR: Inhibition Rate of Tumor; Xcon: Average weight of tumors of the control group; Xtreat: Average weight of tumors of the treatment group.

[3] = Body weight of tumor-bearing nude mice (Experiment Example 1); format: in vivo, BALB/C nude mice; details: 100 mg/kg, ip × 3 (d 1, 5, 9)
Text: as §1

SMILES	Inhibition Rate(%) ([1]; 0.75 mg/kg)	Tumor Weight(g) (x ± SD) ([1]; 0.75 mg/kg)	Inhibition Rate(%) ([1]; 1.50 mg/kg)	Tumor Weight(g) (x ± SD) ([1]; 1.50 mg/kg)	Inhibition Rate(%) [2] [%]	Tumor Weight(g) (x ± SD) [2]	Body weight (g) Beg ([3]; beginning) [g]	Body weight (g) End ([3]; end) [g]
CCNC(=O)[C@@H]1CCCN1C(=O)[C@H](CCCNC(=N)N)NC(=O)[C@H](CC(C)C)NC(=O)[C@@H](CC(C)C)NC(=O)[C@H](Cc1ccc(O)cc1)NC(=O)[C@H](CO)NC(=O)[C@H](Cc1c[nH]c2ccccc12)NC(=O)[C@H](Cc1c[nH]cn1)NC(=O)[C@@H]1CCC(=O)N1 [Lupron, leuprolide acetate]	37.08	0.93 ± 0.23	48.31	0.77 ± 0.14	–	–	–	–
O=P1(N(CCCl)CCCl)NCCCO1 (centres unmarked) [CTX, Cyclophamide]	–	–	–	–	92.47	0.12 ± 0.04	17.0	17.8
